Activity calls are given as the source filed them. No cut-off for these calls is given here.
Assays:
[1] = target: Serine/threonine-protein kinase 38-like (Homo sapiens) (UniProt Q9Y2H1); assay: Inhibition of NDR2 ACT labeling site in human Huh-7 cell lysate at 1 uM by KiNativ Profiling analysis relative to control; format: subcellular
[2] = target: T1, Serine/threonine-protein kinase Sgk3 (Homo sapiens) (UniProt Q96BR1); assay: Inhibition of SGK3 Lys1 labeling site in human Huh-7 cell lysate at 1 uM by KiNativ Profiling analysis relative to control; format: subcellular
T1 sequence (whole entry): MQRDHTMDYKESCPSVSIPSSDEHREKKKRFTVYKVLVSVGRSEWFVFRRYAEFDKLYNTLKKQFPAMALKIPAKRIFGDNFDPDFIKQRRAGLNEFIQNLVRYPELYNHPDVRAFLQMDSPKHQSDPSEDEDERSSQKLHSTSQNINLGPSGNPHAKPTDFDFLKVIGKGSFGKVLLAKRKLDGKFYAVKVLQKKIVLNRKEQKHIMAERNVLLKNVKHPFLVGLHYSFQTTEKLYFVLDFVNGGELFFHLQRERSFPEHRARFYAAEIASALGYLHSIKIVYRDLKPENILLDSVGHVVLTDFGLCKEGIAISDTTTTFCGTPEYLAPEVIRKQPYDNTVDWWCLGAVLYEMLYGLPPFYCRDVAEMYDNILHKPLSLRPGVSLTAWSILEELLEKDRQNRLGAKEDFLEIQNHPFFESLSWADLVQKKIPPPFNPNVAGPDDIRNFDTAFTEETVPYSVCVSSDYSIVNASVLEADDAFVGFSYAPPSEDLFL

[3] = target: Phosphatidylinositol 3-kinase catalytic subunit type 3 (Homo sapiens) (UniProt Q8NEB9); assay: Inhibition of PIK3C3 ATP labeling site in human Huh-7 cells at 1 uM by KiNativ Profiling analysis relative to control; format: cell-based
[4] = target: Mitogen-activated protein kinase 15 (Homo sapiens) (UniProt Q8TD08); assay: Inhibition of ERK8 (unknown origin) at 10 uM by Ambit Kinomescan binding assay
[5] = target: T2, Mitogen-activated protein kinase kinase kinase 5 (Homo sapiens) (UniProt Q99683); assay: Inhibition of MAP3K5 Lys1 labeling site harbouring IAIKEIPER in human A-375 cells at 5 uM by KiNativ Profiling analysis relative to control; format: cell-based
T2 sequence (whole entry): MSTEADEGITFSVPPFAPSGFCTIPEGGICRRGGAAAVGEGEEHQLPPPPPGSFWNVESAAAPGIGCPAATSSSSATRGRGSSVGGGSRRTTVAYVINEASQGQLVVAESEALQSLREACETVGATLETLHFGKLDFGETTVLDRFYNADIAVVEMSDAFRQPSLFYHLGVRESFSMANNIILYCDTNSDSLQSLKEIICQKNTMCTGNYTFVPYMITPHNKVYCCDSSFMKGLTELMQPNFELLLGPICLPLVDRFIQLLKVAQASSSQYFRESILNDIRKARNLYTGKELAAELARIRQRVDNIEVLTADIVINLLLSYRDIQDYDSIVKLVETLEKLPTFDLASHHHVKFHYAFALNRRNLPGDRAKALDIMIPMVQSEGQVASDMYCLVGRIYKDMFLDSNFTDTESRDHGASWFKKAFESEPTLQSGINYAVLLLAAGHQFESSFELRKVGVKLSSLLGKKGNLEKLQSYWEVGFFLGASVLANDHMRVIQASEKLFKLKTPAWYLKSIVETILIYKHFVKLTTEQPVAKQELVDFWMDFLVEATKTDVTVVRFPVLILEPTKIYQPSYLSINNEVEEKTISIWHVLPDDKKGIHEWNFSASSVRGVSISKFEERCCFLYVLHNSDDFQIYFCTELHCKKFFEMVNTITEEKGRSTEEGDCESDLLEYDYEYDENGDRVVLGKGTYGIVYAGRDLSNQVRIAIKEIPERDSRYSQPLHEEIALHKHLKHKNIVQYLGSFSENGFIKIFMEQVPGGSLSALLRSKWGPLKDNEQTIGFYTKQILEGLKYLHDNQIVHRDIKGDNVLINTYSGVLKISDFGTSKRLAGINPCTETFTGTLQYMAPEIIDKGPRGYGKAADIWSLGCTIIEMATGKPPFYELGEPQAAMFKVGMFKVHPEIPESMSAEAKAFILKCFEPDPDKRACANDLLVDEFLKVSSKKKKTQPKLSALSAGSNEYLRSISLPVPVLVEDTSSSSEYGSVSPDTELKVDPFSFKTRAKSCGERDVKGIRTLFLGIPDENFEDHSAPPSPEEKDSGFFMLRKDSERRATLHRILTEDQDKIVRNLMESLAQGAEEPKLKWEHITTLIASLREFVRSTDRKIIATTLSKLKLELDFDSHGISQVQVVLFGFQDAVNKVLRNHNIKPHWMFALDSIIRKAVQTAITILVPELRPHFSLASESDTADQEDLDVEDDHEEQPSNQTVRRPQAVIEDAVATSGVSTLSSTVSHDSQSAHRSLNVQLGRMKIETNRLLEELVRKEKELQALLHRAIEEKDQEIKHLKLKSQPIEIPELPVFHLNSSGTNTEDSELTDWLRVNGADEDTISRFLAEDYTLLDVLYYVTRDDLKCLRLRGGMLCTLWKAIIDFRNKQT

[6] = target: BMP-2-inducible protein kinase (Homo sapiens) (UniProt Q9NSY1); assay: Inhibition of BIKE (unknown origin) at 10 uM by Ambit Kinomescan binding assay
[7] = target: Serine/threonine-protein kinase 16 (Homo sapiens) (UniProt O75716); assay: Inhibition of MPSK1 Lys2 labeling site in human A-375 cells at 0.5 uM by KiNativ Profiling analysis relative to control; format: cell-based
[8] = target: Mitogen-activated protein kinase 8 (Homo sapiens, UniProt P45983); assay: Inhibition of JNK1 (unknown origin) at 1 uM by Ambit Kinomescan binding assay relative to control
[9] = target: Activin receptor type-1 (Homo sapiens) (UniProt Q04771); assay: Inhibition of ACVR1 (unknown origin) at 1 uM by Ambit Kinomescan binding assay relative to control
[10] = target: T3, Serine/threonine-protein kinase STK11 (Homo sapiens) (UniProt Q15831); assay: Inhibition of LKB1 (unknown origin) at 1 uM by Ambit Kinomescan binding assay relative to control; values are per cent of control
T3 sequence (whole entry): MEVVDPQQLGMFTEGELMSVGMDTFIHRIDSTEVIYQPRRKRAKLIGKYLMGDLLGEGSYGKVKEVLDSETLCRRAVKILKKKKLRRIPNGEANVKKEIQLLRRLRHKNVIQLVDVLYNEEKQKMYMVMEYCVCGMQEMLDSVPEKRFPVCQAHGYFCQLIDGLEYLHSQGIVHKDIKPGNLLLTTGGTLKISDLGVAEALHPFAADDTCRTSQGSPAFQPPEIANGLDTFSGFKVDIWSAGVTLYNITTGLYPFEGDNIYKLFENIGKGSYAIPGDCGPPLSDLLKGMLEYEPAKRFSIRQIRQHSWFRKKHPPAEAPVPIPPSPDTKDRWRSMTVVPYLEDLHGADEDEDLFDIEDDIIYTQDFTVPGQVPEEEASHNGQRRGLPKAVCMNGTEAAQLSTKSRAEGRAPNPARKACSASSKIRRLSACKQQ

BMP-2-inducible protein kinase (Homo sapiens), sequence (Q9NSY1 whole entry, looked up): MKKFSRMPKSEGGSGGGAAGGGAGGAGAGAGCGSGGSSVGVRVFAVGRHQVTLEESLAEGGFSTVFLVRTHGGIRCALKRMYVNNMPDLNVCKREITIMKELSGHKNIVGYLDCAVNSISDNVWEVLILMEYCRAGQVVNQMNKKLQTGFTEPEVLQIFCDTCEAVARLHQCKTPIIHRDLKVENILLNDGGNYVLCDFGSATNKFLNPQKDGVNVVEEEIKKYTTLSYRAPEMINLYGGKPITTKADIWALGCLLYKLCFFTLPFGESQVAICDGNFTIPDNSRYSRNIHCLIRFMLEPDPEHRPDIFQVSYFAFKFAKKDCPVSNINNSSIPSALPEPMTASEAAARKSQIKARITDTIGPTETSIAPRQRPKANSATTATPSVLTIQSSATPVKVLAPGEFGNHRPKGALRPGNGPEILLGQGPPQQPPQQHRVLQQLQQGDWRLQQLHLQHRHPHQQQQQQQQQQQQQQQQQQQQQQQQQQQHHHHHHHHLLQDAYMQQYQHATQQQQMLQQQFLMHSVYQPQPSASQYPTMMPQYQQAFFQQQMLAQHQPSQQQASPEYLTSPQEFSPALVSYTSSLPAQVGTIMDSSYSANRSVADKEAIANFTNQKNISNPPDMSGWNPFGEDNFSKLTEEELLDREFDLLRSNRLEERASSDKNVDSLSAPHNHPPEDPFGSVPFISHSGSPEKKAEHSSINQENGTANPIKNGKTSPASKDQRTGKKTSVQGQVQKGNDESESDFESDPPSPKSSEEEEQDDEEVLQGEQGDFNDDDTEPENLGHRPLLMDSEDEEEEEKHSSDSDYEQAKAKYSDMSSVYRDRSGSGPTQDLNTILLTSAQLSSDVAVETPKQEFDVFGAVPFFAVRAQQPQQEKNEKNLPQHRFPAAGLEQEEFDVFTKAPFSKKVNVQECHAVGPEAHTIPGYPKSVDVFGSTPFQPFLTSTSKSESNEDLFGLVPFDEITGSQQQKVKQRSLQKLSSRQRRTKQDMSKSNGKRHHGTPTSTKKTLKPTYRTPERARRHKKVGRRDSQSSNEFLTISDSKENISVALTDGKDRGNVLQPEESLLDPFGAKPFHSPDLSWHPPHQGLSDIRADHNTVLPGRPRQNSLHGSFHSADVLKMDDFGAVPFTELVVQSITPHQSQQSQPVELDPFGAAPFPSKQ
Serine/threonine-protein kinase 38-like (Homo sapiens), sequence (Q9Y2H1 2-464 limits assumed): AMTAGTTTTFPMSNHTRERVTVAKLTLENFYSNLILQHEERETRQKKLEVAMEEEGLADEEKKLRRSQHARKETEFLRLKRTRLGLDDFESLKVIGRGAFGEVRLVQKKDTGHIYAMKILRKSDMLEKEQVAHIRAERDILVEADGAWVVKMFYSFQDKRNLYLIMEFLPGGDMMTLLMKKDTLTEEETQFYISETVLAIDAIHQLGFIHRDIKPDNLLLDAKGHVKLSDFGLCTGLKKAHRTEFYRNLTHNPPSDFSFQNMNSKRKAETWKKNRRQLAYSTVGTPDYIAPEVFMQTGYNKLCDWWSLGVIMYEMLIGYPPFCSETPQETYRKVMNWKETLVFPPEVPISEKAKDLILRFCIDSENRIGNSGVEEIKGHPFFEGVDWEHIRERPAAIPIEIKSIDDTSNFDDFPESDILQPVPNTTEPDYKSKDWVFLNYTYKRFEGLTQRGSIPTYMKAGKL
Mitogen-activated protein kinase 15 (Homo sapiens), sequence (Q8TD08 whole entry): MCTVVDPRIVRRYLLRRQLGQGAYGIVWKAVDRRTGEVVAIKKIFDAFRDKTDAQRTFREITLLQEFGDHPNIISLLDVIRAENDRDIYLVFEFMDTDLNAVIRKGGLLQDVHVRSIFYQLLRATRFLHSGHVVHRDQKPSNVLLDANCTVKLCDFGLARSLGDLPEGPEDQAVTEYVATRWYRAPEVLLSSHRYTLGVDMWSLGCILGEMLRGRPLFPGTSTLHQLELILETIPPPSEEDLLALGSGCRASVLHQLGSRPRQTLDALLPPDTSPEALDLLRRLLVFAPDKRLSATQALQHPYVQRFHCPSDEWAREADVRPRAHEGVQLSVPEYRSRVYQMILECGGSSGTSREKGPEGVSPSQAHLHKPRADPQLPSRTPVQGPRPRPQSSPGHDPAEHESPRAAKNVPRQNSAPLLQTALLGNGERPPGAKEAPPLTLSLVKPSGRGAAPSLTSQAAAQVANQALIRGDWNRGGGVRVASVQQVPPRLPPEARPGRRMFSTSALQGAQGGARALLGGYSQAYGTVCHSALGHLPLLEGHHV
Serine/threonine-protein kinase 16 (Homo sapiens), sequence (O75716 whole entry): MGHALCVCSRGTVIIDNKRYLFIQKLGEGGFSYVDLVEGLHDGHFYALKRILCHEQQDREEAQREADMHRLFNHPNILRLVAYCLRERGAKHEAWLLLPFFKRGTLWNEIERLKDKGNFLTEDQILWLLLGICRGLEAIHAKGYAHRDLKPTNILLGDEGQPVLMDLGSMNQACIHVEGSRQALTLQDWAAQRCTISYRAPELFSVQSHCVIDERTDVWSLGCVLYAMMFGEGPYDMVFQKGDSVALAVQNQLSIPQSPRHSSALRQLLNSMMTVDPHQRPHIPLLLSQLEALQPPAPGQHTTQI
Phosphatidylinositol 3-kinase catalytic subunit type 3 (Homo sapiens), sequence (Q8NEB9 whole entry): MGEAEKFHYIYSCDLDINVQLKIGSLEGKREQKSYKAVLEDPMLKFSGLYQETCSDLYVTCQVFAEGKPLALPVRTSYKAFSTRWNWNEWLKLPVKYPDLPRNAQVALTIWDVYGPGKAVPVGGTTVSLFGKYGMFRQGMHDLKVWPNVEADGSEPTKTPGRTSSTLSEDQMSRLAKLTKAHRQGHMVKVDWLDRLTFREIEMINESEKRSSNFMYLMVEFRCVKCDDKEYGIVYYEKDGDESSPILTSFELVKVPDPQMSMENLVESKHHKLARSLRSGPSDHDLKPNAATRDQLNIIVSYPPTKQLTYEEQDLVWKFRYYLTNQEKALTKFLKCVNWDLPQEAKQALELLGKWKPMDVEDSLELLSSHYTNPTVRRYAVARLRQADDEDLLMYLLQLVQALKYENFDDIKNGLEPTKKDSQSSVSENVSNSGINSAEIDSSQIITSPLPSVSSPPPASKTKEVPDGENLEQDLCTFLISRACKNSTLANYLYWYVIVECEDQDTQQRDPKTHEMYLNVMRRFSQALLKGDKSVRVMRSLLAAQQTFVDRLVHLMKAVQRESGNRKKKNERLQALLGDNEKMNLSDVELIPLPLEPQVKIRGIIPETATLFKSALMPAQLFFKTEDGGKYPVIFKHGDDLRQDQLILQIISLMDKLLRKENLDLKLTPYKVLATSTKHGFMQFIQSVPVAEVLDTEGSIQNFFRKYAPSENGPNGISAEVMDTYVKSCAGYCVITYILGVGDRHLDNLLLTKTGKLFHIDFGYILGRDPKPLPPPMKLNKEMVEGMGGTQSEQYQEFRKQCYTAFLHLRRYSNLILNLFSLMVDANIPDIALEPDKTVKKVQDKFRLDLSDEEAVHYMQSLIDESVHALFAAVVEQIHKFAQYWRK
Mitogen-activated protein kinase 8, sequence (P45983 whole entry): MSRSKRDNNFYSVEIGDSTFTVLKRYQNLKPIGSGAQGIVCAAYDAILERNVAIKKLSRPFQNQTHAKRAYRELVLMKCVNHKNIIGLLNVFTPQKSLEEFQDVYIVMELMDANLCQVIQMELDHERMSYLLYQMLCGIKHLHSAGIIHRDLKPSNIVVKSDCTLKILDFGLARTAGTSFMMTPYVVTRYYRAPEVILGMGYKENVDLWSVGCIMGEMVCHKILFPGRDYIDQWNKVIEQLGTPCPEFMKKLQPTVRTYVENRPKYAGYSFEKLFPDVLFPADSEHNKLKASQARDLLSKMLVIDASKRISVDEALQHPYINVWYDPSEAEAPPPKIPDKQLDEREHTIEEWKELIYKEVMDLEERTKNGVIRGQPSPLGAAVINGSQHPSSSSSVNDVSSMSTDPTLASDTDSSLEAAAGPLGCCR
Activin receptor type-1 (Homo sapiens), sequence (Q04771 whole entry): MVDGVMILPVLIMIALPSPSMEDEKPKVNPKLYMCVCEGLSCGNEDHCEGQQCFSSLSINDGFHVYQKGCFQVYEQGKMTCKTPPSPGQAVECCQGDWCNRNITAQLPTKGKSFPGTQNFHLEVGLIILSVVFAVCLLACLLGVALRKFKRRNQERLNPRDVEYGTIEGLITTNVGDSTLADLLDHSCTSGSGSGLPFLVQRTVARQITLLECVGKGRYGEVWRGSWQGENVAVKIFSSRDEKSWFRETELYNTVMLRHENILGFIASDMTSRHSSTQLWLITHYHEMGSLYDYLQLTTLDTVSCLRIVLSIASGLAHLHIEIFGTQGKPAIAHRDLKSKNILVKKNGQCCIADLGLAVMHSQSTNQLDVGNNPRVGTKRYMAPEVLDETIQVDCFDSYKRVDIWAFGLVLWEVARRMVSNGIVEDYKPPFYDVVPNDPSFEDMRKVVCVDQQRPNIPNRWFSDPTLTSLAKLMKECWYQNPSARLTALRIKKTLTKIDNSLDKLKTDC

For CNc1cc(Oc2cc(C(=O)Nc3cc(N4CCN(C)CC4)cc(C(F)(F)F)c3)ccc2C)ncn1, the inhibition [1] was 4.2%, the inhibition [2] was 3.5% and the inhibition [3] was 8.9%.

In the case of CCN1CCN(Cc2ccc(NC(=O)c3ccc(C)c(Oc4ccnc5[nH]ccc45)c3)cc2C(F)(F)F)CC1, the inhibition [4] is reported as “inactive”, the inhibition [5] is reported as -0.6% and the inhibition [6] is reported as “inactive”.

For CCN1CCN(Cc2ccc(NC(=O)c3ccc(C)c(/C=C/c4cnc5[nH]ccc5c4OC)c3)cc2C(F)(F)F)CC1, the inhibition [7] was 15%, the inhibition [8] was 77% and the inhibition [9] was 100%. For the same compound, the residual activity [10] was 58%.
